Experimental data taken from patent publication US5786367A, “Cyclic amide derivatives” (Otsuka Pharmaceutical Co., Ltd., priority 1994, dated 1998).
Where two headings read alike, the source gives them in different places.

How the values were obtained:
[1] = tested on: skin erythema; assay: Activity for inhibiting skin erythema caused by ultraviolet radiation; type: in vivo, albino guinea pig (Hartley strain, female, 7-8 week age); conditions: for inhibition in vivo at 3 %: Cavia porcellus, UV 1.3-1.5 mW/cm^2 for 30 minutes, measured 24 hours later; for 50% inhibitory concentration (IC50) for inhibiting the skin erythema: three concentrations within 0.1 to 10%
Procedure: The hairs covering in the back of albino guinea pig (Hartley strain, female, 7-8 week age) were shaved by using an electric hair clippers and a shaver. In the next day, the guinea pig was fixed in Bowlman's cage, then a light shield tape (adhesive plaster for patch test), having 4 round holes of 1.5 cm in diameter was adhered on the hair clipped portion so as to provide 4 sites (round holes) to be exposed to the ultraviolet rays. […] Each one of the test sample solutions was prepared by dissolving each test compounds in three kinds of concentrations within 0.1 to 10%, and applied.

[2] = tested on: skin homogenate of guinea pig; assay: Activity for inhibiting the formation of lipid peroxides (ultraviolet-B irradiated skin homogenate, TBA method); type: biochemical, albino guinea pig (Hartley strain, female); conditions: test compound 10^-4 M; UV 9.5 mW/cm^2, 60 minutes
Procedure: The activity for inhibiting the formation of lipid peroxides which are increasingly formed by exposed to the ultraviolet-B radiation to the skin homogenate of guinea pig was determined by a procedure of thiobarbituric acid method (TBA method).
The activity for inhibiting the formation of lipid peroxides can be evaluated by degree of decreasing the optical absorbance of the condensate of thus formed malondialdehyde with thiobarbituric acid, by adding a test sample of the cyclic amide derivative of the present invention to the homogenate.
That is, the hairs covering in the back of an albino guinea pig (Hartley strain, female) were clipped by using an electric hair clippers under anesthesia. After the enucleation of the hair clipped portion of the skin, the subcutaneous tissue of this skin was removed in cold physiological saline. Distilled water in an amount of 9 times by weight of the skin tissue was added to this skin subcutaneous tissue, then was subjected to homogenation and centrifugation (600 g, for 5 minutes) to obtain the supernatant liquid. 5 Microliters each of test sample solutions of various concentrations was added to 0.5 ml each of the supernatant liquid, then the ultraviolet ray in the intensity of 9.5 mW/cm^2 was irradiated for 60 minutes by using fluorescent lamps (TOSHIBA FL-20SE, manufactured by Toshiba Corporation) as a light source. As to the reference sample solution, the solvent for dissolution of the test compound was used in place of the test sample solution. After ultraviolet radiation, the amount of lipid peroxide being formed in the sample solution (TBA value) was measured by TBA method (cf. Analytical Biochemistry, 1979, Vol. 95, pp. 351-358), and the inhibition rate of lipid peroxide formation shown by the test sample was calculated by the following formula: [formula]

[3] = tested on: lens samples obtained from rat; assay: Activity for preventing the lens opacity (UV-irradiated cultured lens); type: cell-based, rat (Wistar strain, male, 6-10 week age); conditions: 1 h, test compound 1 x 10^-4 M, UV 8.8 mW/cm^2, 60 minutes, read-out: Rate of the activity for preventing lens opacity
Procedure: The lens samples obtained from rat (Wistar strain, male, 6-10 week age) were placed on 24-well plate, and were cultured in DEMEM (Dulbecco's modified Eagle's medium manufactured by Nissui Pharmaceutical Co., Ltd.) at 37° C. overnight, a 5% CO2 environment was used. Under dissecting microscope observation, the lens samples having transparency were only selected to use the test. Thus selected lens samples were transferred to midium (1 ml) in which the test compound was dissolved. (As to the reference test, the medium without containing the test compound was used.) The ultraviolet rays in the intensity of 8.8 mW/cm^2 was irradiated for 60 minutes by using a fluorescent lamp (TOSHIBA FL-20SE) to the lens samples. After the irradiation, the medium was replaced to new medium containing the test compound and further cultured overnight. The medium without the test compound was replaced everyday during 3 days. By using a dissecting microscope, opacity of the lens samples were observed. The degrees of opacity of the lens samples was determined by deviding the field of vision into 8 fields as follows: Score 0: transparent; Score 1: some loss of transparency; and Score 2: completely opaque. Rate of activity for preventing the lens opacity was calculated from the following formula: [formula]

[4] = 3% concentration of test compound, 10 μl topical, read-out: Rate of activity for inhibiting the skin erythema

Compound | inhibition in vivo at 3 % [1, 4] | Inhibition rate of lipid peroxide formation [2] | also measured
C=CCc1cc2c(cc1O)CCC(=O)N2CC=C(C)C [Example 10, 7-allyl-3,4-dihydro-6-hydroxy-1-prenyl-2(1H)-quinolinone] | 38% | 82% | 
C=CCc1cc2c(cc1O)N(CC=C(C)C)C(=O)CC2 [Example 11, 6-Allyl-3,4-dihydro-7-hydroxy-1-prenyl-2(1H)-quinolinone] |  | 70% | 
C=CCOc1cc2c(cc1CC=C)N(CC=C(C)C)C(=O)CC2 [Example 17, 7-allyl-6-allyloxy-3,4-dihydro-1-prenyl-2(1H)-quinolinone] |  | 85% | 
C=CCOc1cc2c(cc1CC=C)CCC(=O)N2CC=C(C)C [Example 20, 6-allyl-7-allyloxy-3,4-dihydro-1-prenyl-2(1H)-quinolinone] | 37% | 81% | 
C=CCc1cc2c(c(CC=C)c1O)NC(=O)CC2 [Example 25, 6,8-diallyl-3,4-dihydro-7-hydroxy-2(1H)-quinolinone] |  | 78% | 
C=CCc1cc2c(c(CC=C)c1O)CCC(=O)N2 [Example 26, 5,7-diallyl-3,4-dihydro-6-hydroxy-2(1H)-quinolinone] | 36% | 80% | 
C=CCc1cc2c(c(CC=C)c1O)CCC(=O)N2CC=C(C)C [Example 27, 5,7-diallyl-3,4-dihydro-6-hydroxy-1-prenyl-2(1H)-quinolinone] | 60% | 82% | 50% inhibitory concentration (IC50) for inhibiting the skin erythema ([1]; topical): 1.3 concentration in %
C=CCc1cc2c(c(CC=C)c1O)N(CC=C(C)C)C(=O)CC2 [Example 28, 6,8-diallyl-3,4-dihydro-7-hydroxy-1-prenyl-2(1H)-quinolinone] | 30% | 80% | 
C=CCc1cc2c(c(CC=C)c1O)CCC(=O)N2c1ccc(OC)cc1 [Example 32, 5,7-diallyl-3,4-dihydro-6-hydroxy-1-(4-methoxyphenyl)-2(1H)-quinolinone] |  | 87% | 
C=CCc1cc2c(c(CC=C)c1O)CCC(=O)N2CCCCCCCCCCO [Example 33, 5,7-diallyl-3,4-dihydro-6-hydroxy-1-(10-hydroxy)-decyl-2(1H)-quinolinone] | 18% | 83% | 50% inhibitory concentration (IC50) for inhibiting the skin erythema ([1]; topical): 9.4 concentration in %
C=CCc1cc2c(sc(=O)n2CC=C)c(CC=C)c1O [Example 39, 6-hydroxy-3,5,7-triallylbenzothiazolinone] | 42% | 82% | 50% inhibitory concentration (IC50) for inhibiting the skin erythema ([1]; topical): 4.7 concentration in %
C=CCc1cc2c(c(CC=C)c1O)CCC(=O)N2C [Example 40] | 23% | 84% | 50% inhibitory concentration (IC50) for inhibiting the skin erythema ([1]; topical): 5.6 concentration in %
C=CCc1cc2c(c(CC=C)c1O)CCC(=O)N2CC1CCCCC1 [Example 44] | 63% | 100% | 50% inhibitory concentration (IC50) for inhibiting the skin erythema ([1]; topical): 1.6 concentration in %
C=CCc1cc2c(c(CC=C)c1O)CCC(=O)N2C1C=CCCC1 (stereo not drawn) [Example 45] |  | 95% | 
C=CCc1cc2c(c(CC=C)c1O)CCC(=O)N2CC=C [Example 46] |  | 95% | 
C=CCc1cc2c(c(CC=C)c1O)CCC(=O)N2C/C=C(\C)CCC=C(C)C [Example 48] | 37% | 95% | 
C=CCOc1cccc(CN2C(=O)CCc3c2cc(CC=C)c(O)c3CC=C)c1 [Example 50] | 36% | 89% | 
C=CCOc1ccc(CN2C(=O)CCc3c2cc(CC=C)c(O)c3CC=C)cc1 [Example 51] |  | 95% | 
C=CCc1cc2c(c(CC=C)c1O)CCC(=O)N2Cc1ccc(OC)cc1 [Example 52] |  | 100% | 

Compound | inhibition in vivo at 3 % [1, 4] | Inhibition rate of lipid peroxide formation [2] | also measured
C=CCc1cc(CN2C(=O)CCc3c2cc(CC=C)c(O)c3CC=C)ccc1O [Example 53] |  | 95% | 
C=CCc1cc2c(c(CC=C)c1O)CCC(=O)N2Cc1ccc(C)c(C)c1 [Example 54] |  | 96% | 
C=CCc1cc2c(c(CC=C)c1O)CCC(=O)N2CC(=O)OCC [Example 57, 5,7-diallyl-1-(ethoxy-carbonylmethyl)-3,4-dihydro-6-hydroxy-2(1H)-quinolinone] |  | 78% | 
C=CCc1cc2c(c(CC=C)c1O)CCC(=O)N2c1ccc(OC)c(OC)c1 [Example 60] | 27% | 83% | 
C=CCc1cc2c(cc1O)CCC(=O)N2CCCCCCCCCCO [Example 62] |  | 81% | 
C=CCc1c(O)ccc2c1CCC(=O)N2CCCCCCCCCCO [Example 63] | 35% | 81% | 50% inhibitory concentration (IC50) for inhibiting the skin erythema ([1]; topical): 6.5 concentration in %
C=CCc1ccc2c(c1O)N(CCCCCCCCCCO)C(=O)CC2 [Example 65] |  | 79% | 
C=CCc1cc2c(c(CC=C)c1O)CCC(=O)N2CCCNC(N)=O [Example 68, 5,7-diallyl-3,4-dihydro-6-hydroxy-1-(3-ureidopropyl)-2(1H)-quinolinone] | 43% | 68% | 
C=CCc1cc2c(c(CC=C)c1O)CCC(=O)N2CCCNC(=O)CCl [Example 69, 1-(3-chloroacetylaminopropyl)-5,7-diallyl-3,4-dihydro-6-hydroxy-2(1H)-quinolinone] |  | 78% | 
C=CCc1cc2c(c(CC=C)c1O)CCC(=O)N2CCCNCCOC [Example 74] |  | 68% | 
C=CCc1cc2c(c(CC=C)c1O)CCC(=O)N2CC(=O)O [Example 76, 1-(carboxymethyl)-5,7-diallyl-3,4-dihydro-6-hydroxy-2(1H)-quinolinone] | 50% | 68% | 50% inhibitory concentration (IC50) for inhibiting the skin erythema ([1]; topical): 3.1 concentration in %
C=CCc1cc(CN2C(=O)CCc3c2ccc(O)c3CC=C)cc(OC)c1O [Example 78, 5-allyl-6-hydroxy-1-(3-allyl-4-hydroxy-5-methoxybenzyl)-3,4-dihydro-2(1H)-quinolinone] |  | 95% | 
C=CCOc1cc2c(cc1C=CC)N(CC=C(C)C)C(=O)CC2 [Example 80, 6-allyloxy-3,4-dihydro-1-prenyl-7-(1-propenyl)-2(1H)-quinolinone] |  | 95% | 
C=CCc1cc2c(c(CC=C)c1O)CCC(=O)N2CCCCN(CC)CC [Example 86, 5,7-Diallyl-1-(4-diethylaminobutyl)-3,4-dihydro-6-hydroxy-2(1H)-quinolinone.oxalate] |  | 71% | 
C=CCc1cc2c(c(CC=C)c1O)CCC(=O)N2CCCCP(=O)(OCC)OCC [Example 93, 5,7-diallyl-1-(4-diethoxy-phosphorylbutyl)-3,4-dihydro-6-hydroxy-2(1H)-quinolinone] |  | 73% | 
C=CCc1cc2c(c(CC=C)c1O)CCC(=O)N2C(C)C [Example 98] |  |  | inhibition at 100 µM [3]: 45%
C=CCc1cc2c(c(CC=C)c1O)CCC(=O)N2CC(=O)[O-].[Na+] [Example 113, sodium (5,7-diallyl-6-hydroxy-1,2,3,4-tetrahydro-2-oxoquinolin-1-yl)acetate] |  |  | inhibition in vivo at 3 % ([1]; topical, 24 h, read-out: Rate of activity for inhibiting the skin erythema, 3% concentration of test compound, 10 μl topical): 52%; 50% inhibitory concentration (IC50) for inhibiting the skin erythema ([1]; topical): 2.5 concentration in %
Cc1c(C)c2c(c(C)c1O)CCC(C)(CCCC(C)CCCC(C)CCCC(C)C)O2 (stereo not drawn) [Vitamin E, α-tocopherol, reference compound] |  | 77-79% | 
